The source made the active and inactive calls. The calls are words filed in the database; no cut-off is given here.
Legend:
[1] = system: MDA-MB-468; test: Anticancer activity against CYP1 expressing human MDA-MB-468 cells by MTT assay; format: functional, cell-based
[2] = molecular target: Cytochrome P450 1B1 (Homo sapiens) (UniProt Q16678); test: Activity at recombinant CYP1B1 assessed as E5M1 metabolite elution time at 10 uM by HPLC analysis; conditions: recombinant enzyme
[3] = molecular target: T1, Cytochrome P450 1B1 (Homo sapiens, UniProt Q16678); test: Inhibition of CYP1B1 EROD activity assessed as inhibition of deethylation of 7-ethoxyresorufin to resorufin; format: ADME
T1 sequence (Q16678 whole entry): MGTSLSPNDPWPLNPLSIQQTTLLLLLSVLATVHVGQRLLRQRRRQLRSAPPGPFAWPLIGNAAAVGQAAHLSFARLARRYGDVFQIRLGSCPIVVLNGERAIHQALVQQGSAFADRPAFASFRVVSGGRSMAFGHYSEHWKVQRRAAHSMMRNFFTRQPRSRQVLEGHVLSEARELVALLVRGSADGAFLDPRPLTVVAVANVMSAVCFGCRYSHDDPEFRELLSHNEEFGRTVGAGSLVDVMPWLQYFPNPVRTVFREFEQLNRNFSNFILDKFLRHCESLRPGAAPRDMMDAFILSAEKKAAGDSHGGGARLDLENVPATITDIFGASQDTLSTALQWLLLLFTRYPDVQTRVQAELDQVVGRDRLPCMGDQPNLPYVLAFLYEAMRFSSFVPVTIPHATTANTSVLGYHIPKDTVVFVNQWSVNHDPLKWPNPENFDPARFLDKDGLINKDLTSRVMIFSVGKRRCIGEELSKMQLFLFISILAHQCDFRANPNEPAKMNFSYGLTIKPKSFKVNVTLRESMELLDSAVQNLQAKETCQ

[4] = molecular target: T2, CYP1A1 (Homo sapiens, UniProt P04798); test: Activity at CYP1A1 in recombinant human CYP1A1 microsomes assessed as parent compound remaining after 20 mins by HPLC analysis
T2 sequence (P04798 whole entry): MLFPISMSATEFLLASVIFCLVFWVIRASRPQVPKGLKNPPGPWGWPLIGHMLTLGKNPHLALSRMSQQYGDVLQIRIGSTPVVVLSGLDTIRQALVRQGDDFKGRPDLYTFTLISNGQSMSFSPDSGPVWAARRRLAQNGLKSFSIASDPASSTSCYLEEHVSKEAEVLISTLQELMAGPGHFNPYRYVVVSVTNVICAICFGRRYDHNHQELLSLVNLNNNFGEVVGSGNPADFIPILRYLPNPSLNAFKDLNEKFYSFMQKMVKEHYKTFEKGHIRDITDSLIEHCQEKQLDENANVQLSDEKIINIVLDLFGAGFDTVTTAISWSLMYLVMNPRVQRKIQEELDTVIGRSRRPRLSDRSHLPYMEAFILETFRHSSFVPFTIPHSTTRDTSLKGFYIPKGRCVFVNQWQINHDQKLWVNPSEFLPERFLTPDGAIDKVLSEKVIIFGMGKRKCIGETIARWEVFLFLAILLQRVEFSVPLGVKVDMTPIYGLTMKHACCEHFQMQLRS

[5] = molecular target: T3, Cytochrome P450 1A1 (Homo sapiens, UniProt P04798); test: Inhibition of CYP1A1 EROD activity assessed as inhibition of deethylation of 7-ethoxyresorufin to resorufin; format: ADME
T3 sequence (P04798 whole entry): T2 sequence (P04798 whole entry)

[6] = molecular target: T3, Cytochrome P450 1A1; test: Activity at recombinant CYP1A1 assessed as E5M1 metabolite elution time at 10 uM by HPLC analysis; format: ADME; conditions: recombinant enzyme
[7] = system: MCF-10A; test: Anticancer activity against non-CYP1 expressing human MCF10A cells by MTT assay; format: functional, cell-based
[8] = system: MDA-MB-468; test: Activation factor, ratio of IC50 for non-CYP1 expressing human MCF10A to IC50 for CYP1 expressing human MDA-MB-468 cells; format: functional
[9] = molecular target: T3, Cytochrome P450 1A1; test: Activity at recombinant CYP1A1 assessed as AM1 metabolite retention time at 10 uM by HPLC analysis; format: ADME; conditions: recombinant enzyme
[10] = molecular target: T3, Cytochrome P450 1A1; test: Activity at recombinant CYP1A1 assessed as scutellarein production at 10 uM after 20 mins by HPLC analysis; format: ADME; conditions: recombinant enzyme
[11] = molecular target: T3, Cytochrome P450 1A1; test: Activity at recombinant CYP1A1 assessed as luteolin production at 10 uM after 20 mins by HPLC analysis; format: ADME; conditions: recombinant enzyme
[12] = molecular target: T3, Cytochrome P450 1A1; test: Activity at recombinant CYP1A1 assessed as apigenin production at 10 uM after 20 mins by HPLC analysis; format: ADME; conditions: recombinant enzyme
[13] = molecular target: T3, Cytochrome P450 1A1; test: Activity at recombinant CYP1A1 assessed as AM1 metabolite production at 10 uM after 20 mins by HPLC analysis; format: ADME; conditions: recombinant enzyme

Compound: COc1ccc(-c2cc(=O)c3c(OC)c(OC)c(OC)cc3o2)cc1O
- Activity [1]: Active
- Time [2]: 8.9 min
- Ki [3]: 670 nM
- remaining at 20 min [4]: 20.4%
- Ki [5]: 630 nM
- Time [6]: 8.9 min
- Activity [7]: inactive
- Ratio IC50 [8]: 100

Compound: COc1ccc(-c2cc(=O)c3c(O)cc(O)cc3o2)cc1 [ACACETIN]
- Time [9]: 11.3 min
- Activity [10]: Active
- remaining at 20 min [4]: 15.9%
- Activity [11]: Active
- Activity [12]: Active
- Activity [13]: Active

Compound: O=c1cc(-c2ccccc2)oc2cc(O)c(O)c(O)c12 [BAICALEIN]
- Ki [3]: 260 nM
- Ki [5]: 1220 nM
- Ratio IC50 [8]: 1.7

Compound: O=c1cc(-c2ccccc2)oc2cc(O)cc(O)c12 [CHRYSIN]
- remaining at 20 min [4]: 15.9%

Compound: COc1cc2oc(-c3ccc(O)c(O)c3)cc(=O)c2c(O)c1OC [CIRSILIOL]
- Ki [3]: > 800 nM
- remaining at 20 min [4]: 16.7%
- Ki [5]: > 800 nM
- Ratio IC50 [8]: 8

Compound: COc1ccc(-c2cc(=O)c3c(O)c(OC)c(OC)cc3o2)cc1O [EUPATORIN]
- Ki [3]: 35 nM
- remaining at 20 min [4]: 47.8%
- Ki [5]: 210 nM
- Ratio IC50 [8]: 100

Compound: COc1cc(O)c2c(=O)cc(-c3ccc(O)cc3)oc2c1 [GENKWANIN]
- Ki [3]: > 2340 nM
- remaining at 20 min [4]: 34%
- Ki [5]: > 2340 nM
- Ratio IC50 [8]: 47

Compound: O=c1c(O)c(-c2cc(O)c(O)c(O)c2)oc2cc(O)cc(O)c12 [MYRICETIN]
- Ki [3]: 27 nM
- Ki [5]: 370 nM

Compound: O=c1cc(-c2ccc(O)cc2)oc2cc(O)c(O)c(O)c12 [SCUTELLAREIN]
- Ki [3]: 220 nM
- remaining at 20 min [4]: 12.6%
- Ki [5]: 1640 nM
- Ratio IC50 [8]: 3.3

Compound: COc1ccc(-c2cc(=O)c3c(OC)c(OC)c(OC)cc3o2)cc1OC [SINENSETIN]
- remaining at 20 min [4]: 68.9%
- Ratio IC50 [8]: 325

— ChEMBL document CHEMBL1777768, “Comparative CYP1A1 and CYP1B1 substrate and inhibitor profile of dietary flavonoids” (Bioorg Med Chem, 2011)
